{"source": "patent EP4309500B1", "about": "“PEROXIDASE BASED BIOCONTROL AGENTS” (Acies Bio d.o.o., priority 2022, dated 2024)", "key": {"[1]": {"system": "LspPOX, peroxidase from Lyngbya sp. (strain PCC 8106), mature protein amino acids 117-661 of SEQ ID NO: 12", "settings": "ABTS 0.025 - 10 mM, 10 nM peroxidase, H2O2, 50 mM phosphate buffer pH 6.0, 25 °C (Example 4)", "description": "(§1) The reaction in presence of H2O2 can be easily measured on microplate reader.\nThe oxidation reaction was read for 30 min at 25 °C. […] The concentration of the added H2O2 solution was 200 µM."}, "[2]": {"system": "LspPOX, peroxidase from Lyngbya sp. (strain PCC 8106), mature protein amino acids 117-661 of SEQ ID NO: 12", "settings": "ABTS 0.025 - 10 mM, 10 nM peroxidase, 100 µM H2O2, 50 mM phosphate buffer pH 6.0, 25 °C, optimized fitting (Example 4.1)", "description": "as §1\nThe oxidation reaction was read for 30 min at 25 °C."}, "[3]": {"system": "HydPOXs, HydPOX peroxidase without proregion (amino acids 117 to 659 of SEQ ID NO: 1), SEQ ID NO: 18", "settings": "ABTS 0.025 - 5 mM, 6.45 nM peroxidase, 100 µM H2O2, 50 mM sodium acetate buffer pH 5.0, 25 °C (Example 12)", "description": "(§2) The assays were performed in triplicates on a TECAN microtiter plate reader in a total of 200 µL. […] The oxidation reaction was read for 30 min at 25 °C."}, "[4]": {"system": "LspPOX, peroxidase from Lyngbya sp. (strain PCC 8106), mature protein amino acids 117-661 of SEQ ID NO: 12", "settings": "ABTS 0.025 - 5 mM, 6.45 nM peroxidase, 100 µM H2O2, 50 mM sodium acetate buffer pH 5.0, 25 °C (Example 12)", "description": "as §2"}, "[5]": {"system": "HydPOXs, HydPOX peroxidase without proregion (amino acids 117 to 659 of SEQ ID NO: 1), SEQ ID NO: 18", "settings": "KI 0.03 - 4 mM, 0.1 mM H2O2, 100 µM thymol blue, 1 µg/ml peroxidase, 0.1 M phosphate buffer pH 7.2, room temperature (Example 13)", "procedure": "(§3) The bacterial peroxidases (HydPOX, HydPOXs, OkePOXs) were compared to LpoPOX and LspPOX under these modified conditions.\n(§4) The enzymatic reactions were performed at room temperature for 30 min in clear flat-bottomed microplate wells containing 200 µl 0.1 M phosphate buffer pH 7.2, 100 µM thymol blue, 1 µg/ml of recombinant bacterial peroxidase (or commercial LpoPOX as defined in SEQ ID NO: 16), H2O2 and a reducing agent such as I^- (general assay setup).\n(§5) Kinetic constants were calculated using a nonlinear regression fitting curve (Figure 9A). […] For this reason, K0.5 values are used indicating the substrate concentration at which half maximal velocity/half-saturation is achieved."}, "[6]": {"system": "OkePOXs, functional fragment of OkePOX heme peroxidase from Okeania hirsuta (amino acids 117 to 659 of SEQ ID NO: 11), SEQ ID NO: 25 or 27", "settings": "KI 0.03 - 4 mM, 0.1 mM H2O2, 100 µM thymol blue, 1 µg/ml peroxidase", "procedure": "as §3, §4, §5"}, "[7]": {"target": "T1, LpoPOX, bovine lactoperoxidase, commercial protein, SEQ ID NO: 16 (lacks the propeptide region) (Bos taurus, UniProt P80025)", "T1 construct": "purchased", "experiment": "Thymol blue assay (halogenation assay), kinetics at 0.1 mM H2O2 (Example 13)", "type": "biochemical", "settings": "KI 0.03 - 4 mM, 0.1 mM H2O2, 100 µM thymol blue, 1 µg/ml peroxidase", "procedure": "as §3, §4, §5"}, "[8]": {"system": "LspPOX, peroxidase from Lyngbya sp. (strain PCC 8106), mature protein amino acids 117-661 of SEQ ID NO: 12", "experiment": "Thymol blue assay (halogenation assay), kinetics at 0.1 mM H2O2 (Example 13)", "type": "biochemical, Lyngbya sp. PCC 8106", "settings": "KI 0.03 - 4 mM, 0.1 mM H2O2, 100 µM thymol blue, 1 µg/ml peroxidase", "procedure": "as §3, §4, §5"}, "[9]": {"settings": "0.1 M phosphate buffer pH 7.2, room temperature (Example 13)"}, "[10]": {"settings": "0.1 M phosphate buffer pH 7.2, room temperature, sigmoidal fitting (Example 13), 30 min, read-out: K0.5"}}, "note": "Read-outs that look alike come from different tables or passages of the source.", "data": [{"molecule": "CCn1c(=NN=c2sc3cc(S(=O)(=O)O)ccc3n2CC)sc2cc(S(=O)(=O)O)ccc21", "note": "[ABTS, 2,2'-azino-bis (3-ethylbenzothiazoline-6-sulfonic acid)]", "values": [{"measurement": "Km", "setting": "[1]", "result": 237, "unit": "µM"}, {"measurement": "kcat", "setting": "[1]", "result": "7,45 s^-1"}, {"measurement": "Km", "setting": "[2]", "result": 180, "unit": "µM"}, {"measurement": "kcat", "setting": "[2]", "result": 6.3, "unit": "s⁻¹"}, {"measurement": "kcat", "setting": "[3]", "result": 95, "unit": "s^1"}, {"measurement": "Km", "setting": "[4]", "result": 1.09, "unit": "mM"}, {"measurement": "kcat", "setting": "[4]", "result": 57, "unit": "s^1"}]}, {"molecule": "[I-].[K+]", "note": "[KI, potassium iodide]", "values": [{"measurement": "kcat", "setting": "[5]", "result": 10.6, "unit": "s⁻¹"}, {"measurement": "kcat/K0.5", "setting": "[5]", "result": 85.1, "unit": "s⁻¹ mM⁻¹"}, {"measurement": "kcat", "setting": "[6]; [9]", "result": 13.7, "unit": "s⁻¹"}, {"measurement": "kcat/K0.5", "setting": "[6]; [9]", "result": 118.6, "unit": "s⁻¹ mM⁻¹"}, {"measurement": "Km", "setting": "[6]; read-out: K0.5, 0.1 M phosphate buffer pH 7.2, room temperature, sigmoidal fitting (Example 13), 30 min", "result": 120, "unit": "µM"}, {"measurement": "kcat", "setting": "[7]; [9]", "result": 16.5, "unit": "s⁻¹"}, {"measurement": "kcat/K0.5", "setting": "[7]; [9]", "result": 12.5, "unit": "s⁻¹ mM⁻¹"}, {"measurement": "Km", "setting": "[7]; [10]", "result": 1.32, "unit": "mM"}, {"measurement": "kcat", "setting": "[8]; [9]", "result": 14.7, "unit": "s⁻¹"}, {"measurement": "kcat/K0.5", "setting": "[8]; [9]", "result": 10.6, "unit": "s⁻¹ mM⁻¹"}, {"measurement": "Km", "setting": "[8]; [10]", "result": 1.39, "unit": "mM"}]}]}
